The results in this text go back to paper PMC11784839, “Monoaminergic neurotransmitters are bimodal effectors of tau aggregation” (Science Advances, 2025).

Structures are written as SMILES.

The experiment addresses tau (Homo sapiens, UniProt P10636). Kind of experiment: MCE Phenols Library screening, tau biosensor cell seeding assay (AvZ). Type of experiment: cell-based. The note with it: for Z repl 1 / Z Repl 2: Z score; for Z repl 1 / raw data 1: replicate 1; for Z Repl 2 / raw data 2: replicate 2.
Where [1] appears, read: average Z score of the two replicates, MCE Phenols Library screen.
The mark [2] stands for this setting: average Z score of the two replicates, tau seeding.
Setting [3] is: average Z score of two replicates, Phenols Library screen.
[4] abbreviates: average puncta of the two replicates.
The mark [5] stands for this setting: average Z score of the two replicates, tau biosensor seeding, MCE Phenols Library screen.

tau, sequence (P10636 623-695 limits assumed): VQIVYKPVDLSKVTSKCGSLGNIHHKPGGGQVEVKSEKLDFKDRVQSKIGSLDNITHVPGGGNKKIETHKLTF

As for `Oc1cc(O)c2c(c1)O[C@H](c1cc(O)c(O)c(O)c1)[C@@H](O)C2` [(+)-Gallocatechin], the “Z repl 1” value is recorded as -0.679 and the “Z Repl 2” value is given as -1.082. The “av Z” value under setting [1] is recorded as -0.881. Where the note is “average of raw data 1 and 2”, this molecule had an av puncta of 9700.21. Also, under “puncta”, the “raw data 1” value was 18193.2 and the “raw data 2” value worked out at 1207.17.

Take `COc1cc(C[C@@H](CO)[C@H](CO)Cc2ccc(O)c(OC)c2)ccc1O` [(+)-Secoisolariciresinol]: the “Z repl 1” value was 0.313 and the “Z Repl 2” value is on record as 1.018. Moreover, the “av Z” value under setting [2] amounted to 0.666. Further, the av puncta (average of raw data 1 and 2) was 26875.3. Besides, for the setting “puncta”, the “raw data 1” value was 30111.3 and the “raw data 2” value is on record as 23639.2.

Take `Oc1ccc([C@H]2COc3cc(O)ccc3C2)cc1` [(-)-(S)-Equol]: the “Z repl 1” value was found to be 0.447 and the “Z Repl 2” value is -0.597. Under setting [3], the “av Z” value is -0.075. Moreover, the av puncta (average of raw data 1 and 2) is 19047.3. In addition, for the setting “puncta”, the “raw data 1” value was 31709.7 and the “raw data 2” value came to 6384.95.

Regarding `O=C(O[C@@H]1Cc2c(O)cc(O)cc2O[C@H]1c1ccc(O)c(O)c1)c1cc(O)c(O)c(O)c1` [(-)-Catechin gallate], the “Z repl 1” value is given as -0.615 and the “Z Repl 2” value is given as -1.07. Besides, the “av Z” value under setting [1] was -0.843. This molecule came in with an av puncta (average of raw data 1 and 2) of 10148.5. For the same molecule, for the setting “puncta”, the “raw data 1” value was determined as 18961.3 and the “raw data 2” value was 1335.66.

With `Oc1ccc([C@H]2Oc3cc(O)cc(O)c3C[C@H]2O)cc1` [(-)-Epiafzelechin], the “Z repl 1” value is recorded as -0.198 and the “Z Repl 2” value turned out to be 0.182. Under setting [3], the “av Z” value is -0.008. The same molecule came in with an av puncta (average of raw data 1 and 2) of 19340.4. Further, where the note is “puncta”, the “raw data 1” value came out at 23970.4 and the “raw data 2” value turned out to be 14710.3.

`O=C(O[C@@H]1Cc2c(O)cc(O)cc2O[C@@H]1c1ccc(O)c(O)c1)c1cc(O)c(O)c(O)c1` [(-)-Epicatechin gallate]: the “Z repl 1” value is reported as -1.161 and the “Z Repl 2” value is -0.434. In addition, the “av Z” value under setting [1] is reported as -0.797. Under “average of raw data 1 and 2”, this molecule displayed an av puncta of 10272.2. Besides, where the note is “puncta”, the “raw data 1” value worked out at 12408.5 and the “raw data 2” value came out at 8135.9.

Turning to `O=C(O[C@@H]1Cc2c(O)cc(O)cc2O[C@@H]1c1cc(O)c(O)c(O)c1)c1cc(O)c(O)c(O)c1` [(-)-Epigallocatechin Gallate], the “Z repl 1” value is reported as -2.044. For the same molecule, the “av Z” value under setting [1] is on record as -1.608. In addition, the av puncta (average of raw data 1 and 2) was 1025.27. Also, where the note is “puncta”, the “raw data 1” value was 1812.01 and the “raw data 2” value is reported as 238.519.

Take `Oc1cc(O)c2c(c1)O[C@H](c1cc(O)c(O)c(O)c1)[C@H](O)C2` [(-)-Epigallocatechin]: the “Z repl 1” value is reported as -0.424 and the “Z Repl 2” value is reported as -0.047. Moreover, the “av Z” value under setting [1] is -0.236. Besides, the av puncta under setting [4] was determined as 16761.1. In addition, under “raw puncta”, the “raw data 1” value amounted to 21261.4 and the “raw data 2” value came out at 12260.9.

`O=C(O[C@@H]1Cc2c(O)cc(O)cc2O[C@H]1c1cc(O)c(O)c(O)c1)c1cc(O)c(O)c(O)c1` [(-)-Gallocatechin gallate]: the “Z Repl 2” value is recorded as -1.187. This molecule gave an av puncta (average of raw data 1 and 2) of 257.55. Further, where the note is “puncta”, the “raw data 1” value is 427.718 and the “raw data 2” value is given as 87.382.

`Oc1cc(O)c2c(c1)O[C@@H](c1cc(O)c(O)c(O)c1)[C@H](O)C2` [(-)-Gallocatechin]: the “Z repl 1” value is given as -1.316 and the “Z Repl 2” value is -0.749. For the same molecule, the “av Z” value under setting [1] is given as -1.032. Under “average of raw data 1 and 2”, this molecule gave an av puncta of 7661.42. Moreover, for the setting “puncta”, the “raw data 1” value came to 10555.6 and the “raw data 2” value is on record as 4767.22.

Turning to `Oc1ccc2c(c1)OC[C@H]1c3cc4c(cc3O[C@@H]21)OCO4` [(-?)?-Maackiain], the “Z repl 1” value was found to be 0.975 and the “Z Repl 2” value is 0.791. The “av Z” value under setting [5] is on record as 0.883. Moreover, the av puncta (average of raw data 1 and 2) is reported as 29633.2. For the same molecule, where the note is “puncta”, the “raw data 1” value turned out to be 38055.6 and the “raw data 2” value is on record as 21210.9.

Turning to `COc1cc(/C=C/C(=O)OCC2OC(OC3(CO)OC(CO)C(O)C3OC(=O)/C=C/c3cc(OC)c(O)c(OC)c3)C(O)C(O)C2O)cc(OC)c1O` (stereo not drawn) [(E)-3',6-Disinapoylsucrose], the “Z repl 1” value is 0.224 and the “Z Repl 2” value was -0.662. Further, the “av Z” value under setting [1] is -0.219. For the same molecule, the av puncta under setting [4] is 17367.3. Under “raw puncta”, the “raw data 1” value was 29041 and the “raw data 2” value came out at 5693.57.

Take `COC(=O)/C=C/c1ccc(O)cc1` [(E)-Methyl 4-coumarate]: the “Z repl 1” value is recorded as 0.336 and the “Z Repl 2” value is on record as -0.209. Under “10 μM phenol in cell cultures, AD brain homogenate preincubated 16 hours, two biological replicates, positive = catalyzes seeding, negative = inhibits”, the “AvZ (average z score of seeding, SDs from the mean level of seeding)” value amounted to 0.064. This molecule also gave an av puncta (average of raw data 1 and 2) of 20459.1. In addition, under “puncta”, the “raw data 1” value is given as 30381.4 and the “raw data 2” value came out at 10536.7.

For `COc1ccc2cc1Oc1ccc(cc1)C[C@H]1c3cc(c(OC)cc3CCN1C)Oc1c(O)c(OC)cc3c1[C@@H](C2)N(C)CC3` [(R)-Fangchinoline], the “Z repl 1” value worked out at 0.226 and the “Z Repl 2” value amounted to 0.65. Also, the “av Z” value under setting [2] was 0.438. The molecule further displayed an av puncta (average of raw data 1 and 2) of 24385.2. In addition, for the setting “puncta”, the “raw data 1” value stood at 29066.8 and the “raw data 2” value is given as 19703.5.

With `CC[C@@]1(O)C(=O)OCc2c1cc1n(c2=O)Cc2cc3cc(O)ccc3nc2-1` [(S)-10-Hydroxycamptothecin], the “Z repl 1” value is reported as 1.738 and the “Z Repl 2” value amounted to 1.796. Further, the “av Z” value under setting [5] came out at 1.767. The molecule further returned an av puncta (average of raw data 1 and 2) of 39581.6. Further, where the note is “puncta”, the “raw data 1” value came to 47219.2 and the “raw data 2” value is recorded as 31944.1.

With `CC(C)=CC[C@H](OC(=O)C=C(C)C)C1=CC(=O)c2c(O)ccc(O)c2C1=O` [?,?-Dimethylacrylalkannin], the “Z repl 1” value was found to be 0.881 and the “Z Repl 2” value came out at 0.516. The “av Z” value under setting [2] turned out to be 0.698. The same molecule yielded an av puncta (average of raw data 1 and 2) of 27599.4. Also, where the note is “puncta”, the “raw data 1” value was determined as 36919.9 and the “raw data 2” value is reported as 18278.8.

As to `OC[C@H]1O[C@@H](Oc2ccc(O)cc2)[C@H](O)[C@@H](O)[C@@H]1O` [?-Arbutin], the “Z repl 1” value is reported as 1.599 and the “Z Repl 2” value is on record as 0.945. Also, the “av Z” value under setting [5] was found to be 1.272. Moreover, the av puncta (average of raw data 1 and 2) worked out at 34202.6. Where the note is “puncta”, the “raw data 1” value worked out at 45542.6 and the “raw data 2” value stood at 22862.6.

`CC(C)=CC[C@@H](OC(=O)CC(C)(C)O)C1=CC(=O)c2c(O)ccc(O)c2C1=O` [?-Hydroxyisovalerylshikonin]: the “Z repl 1” value is recorded as -0.737 and the “Z Repl 2” value was -0.673. Also, the “av Z” value under setting [1] was -0.705. The av puncta under setting [4] stood at 11543.5. Moreover, under “puncta”, the “raw data 1” value was determined as 17504.1 and the “raw data 2” value worked out at 5582.9.

For the molecule `Cc1cc(O)c(C)c2c1O[C@](C)(CCC[C@H](C)CCC[C@H](C)CCCC(C)C)CC2` [?-Tocopherol], the “Z repl 1” value was 0.056 and the “Z Repl 2” value is reported as -0.786. The “av Z” value under setting [1] is recorded as -0.365. Under setting [4], this molecule came in with an av puncta of 15701. Also, where the note is “raw puncta”, the “raw data 1” value amounted to 27026 and the “raw data 2” value is 4376.13.

For the molecule `Cc1c(C)c2c(c(C)c1O)CC[C@@](C)(CCC[C@H](C)CCC[C@H](C)CCCC(C)C)O2` [?-Vitamin E], the “Z repl 1” value was -0.172 and the “Z Repl 2” value is listed as -0.481. Besides, under setting [1], the “av Z” value was -0.326. This molecule also registered an av puncta under setting [4] of 15958. Moreover, for the setting “raw puncta”, the “raw data 1” value came to 24288.2 and the “raw data 2” value is on record as 7627.82.

As to `COc1ccc(-c2cc(=O)c3c(O)cc(O)cc3o2)cc1` [Acacetin], the “Z repl 1” value is recorded as -0.027 and the “Z Repl 2” value is -0.222. Besides, under setting [3], the “av Z” value was -0.124. Moreover, the av puncta (average of raw data 1 and 2) stood at 18211.5. For the setting “puncta”, the “raw data 1” value is listed as 26028.3 and the “raw data 2” value was determined as 10394.7.

Take `CC(=O)O[C@@H](CC=C(C)C)C1=CC(=O)c2c(O)ccc(O)c2C1=O` [Acetylalkannin]: the “Z repl 1” value is on record as -0.759 and the “Z Repl 2” value was -0.292. The “av Z” value under setting [1] is listed as -0.525. The molecule further displayed an av puncta under setting [4] of 13443.1. Further, under “puncta”, the “raw data 1” value is listed as 17242.7 and the “raw data 2” value was determined as 9643.51.

`CC(=O)O[C@H](CC=C(C)C)C1=CC(=O)c2c(O)ccc(O)c2C1=O` [Acetylshikonin]: the “Z repl 1” value is listed as 0.563 and the “Z Repl 2” value is reported as 1.037. For the same molecule, under setting [5], the “av Z” value came to 0.8. The molecule also returned an av puncta (average of raw data 1 and 2) of 28473.3. Moreover, for the setting “puncta”, the “raw data 1” value is 33102.4 and the “raw data 2” value is on record as 23844.2.

As for `O=C(OCC1=C[C@@H](O)[C@@H]2C=CO[C@@H](O[C@@H]3O[C@H](CO)[C@@H](O)[C@H](O)[C@H]3O)[C@H]12)c1ccc(O)cc1` [Agnuside], the “Z repl 1” value was -0.301 and the “Z Repl 2” value is given as 0.292. Moreover, the “av Z” value under setting [3] is reported as -0.004. This molecule also showed an av puncta (average of raw data 1 and 2) of 19312.6. Also, for the setting “puncta”, the “raw data 1” value was 22737.6 and the “raw data 2” value is reported as 15887.6.

Take `CCCC(=O)c1c(O)c(Cc2c(O)c(Cc3c(O)c(C)c(OC)c(C(=O)CCC)c3O)c(O)c(C(=O)[C@@H](C)CC)c2O)c(O)c(C)c1OC` [Agrimol B]: the “Z repl 1” value was -1.539 and the “Z Repl 2” value is on record as -0.722. Under setting [1], the “av Z” value was -1.13. Under “average of raw data 1 and 2”, the av puncta stood at 6464.64. Further, under “puncta”, the “raw data 1” value is 7875.9 and the “raw data 2” value stood at 5053.37.

Turning to `O=C1c2ccccc2C(=O)c2c1ccc(O)c2O` [Alizarin], the “Z repl 1” value is listed as -0.67 and the “Z Repl 2” value is -0.047. The “av Z” value under setting [1] is on record as -0.359. Under setting [4], the av puncta was 15284.3. Further, under “raw puncta”, the “raw data 1” value came out at 18305.8 and the “raw data 2” value turned out to be 12262.8.
